Where “and” joins values, the source holds several entries; their conditions need not be identical. Equal entries are not always repeated. Where two headings read alike, the source gives them in different places.
Key:
cdk5 p35(h) = biological target: T1, cdk5 p35(h) (Homo sapiens, UniProt Q00535); assay: Kinase inhibitory activity (EMD Millipore KinaseProfiler), cdk5; type: biochemical; conditions: 20 μM highest concentration used; read-out: Cdk5 EC50/IC50 affinities
T1 construct: purchased EMD Millipore KinaseProfiler service (Millipore UK Ltd.)
T1 sequence (Q00535 whole entry): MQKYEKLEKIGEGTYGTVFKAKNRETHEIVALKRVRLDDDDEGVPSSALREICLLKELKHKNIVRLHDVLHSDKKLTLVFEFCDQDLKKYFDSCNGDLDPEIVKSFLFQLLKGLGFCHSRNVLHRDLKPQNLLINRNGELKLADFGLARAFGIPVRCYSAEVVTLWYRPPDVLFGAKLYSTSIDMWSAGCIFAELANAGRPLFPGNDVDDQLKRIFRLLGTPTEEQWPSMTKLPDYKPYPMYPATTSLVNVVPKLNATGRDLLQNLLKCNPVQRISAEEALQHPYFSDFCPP
T1 sequence (Q15078 whole entry partner): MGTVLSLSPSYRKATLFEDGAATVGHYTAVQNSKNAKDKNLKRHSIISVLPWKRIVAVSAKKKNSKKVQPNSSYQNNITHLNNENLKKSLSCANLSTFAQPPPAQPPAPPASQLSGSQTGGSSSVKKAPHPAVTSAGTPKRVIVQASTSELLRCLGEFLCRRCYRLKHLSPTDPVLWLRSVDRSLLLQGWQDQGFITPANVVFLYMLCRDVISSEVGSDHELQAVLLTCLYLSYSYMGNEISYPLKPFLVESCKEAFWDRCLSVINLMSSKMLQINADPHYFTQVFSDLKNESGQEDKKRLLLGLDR
Protocol: (§1) Kinase inhibitory activity. Kinase inhibitory activities were determined using the EMD Millipore KinaseProfiler™ service (Millipore UK Ltd.). Each compound's kinase inhibitory activity was tested at three different concentrations (0.2 μM, 2 μM, and 20 μM) against five different kinases: Cdk1 cyclinB(h), cdk2 cyclinA(h), cdk5 p35(h), mitogen-activated protein kinase (MAPK1(h)) and myosin light-chain kinase (MLCK(h)).
(§2) Statistical Analysis. Statistical analysis was performed using either GraphPad Prism 5 (GraphPad Software, Inc.) or Origin 7 (OriginLab) software. For the dose-response analyses on Ca^2+ current, each concentration of the four different compounds was tested in 3-6 cells. […] All EC50 and IC50 values and their respective errors were determined by performing 100 iterations of a logistic function curve fit. Data are presented as mean±s.e.m. unless otherwise noted.

LEMS model NMJs = assay: Intracellular recordings at LEMS model mouse NMJs, 13x, DAP and combination (Example 4); conditions: 50 μM 13x, […] DAP, or both
Protocol: To test this, intracellular microelectrode recordings were performed on ex vivo nerve-muscle preparations taken from LEMS passive-transfer model mice and measured the magnitude of acetylcholine released at the neuromuscular junction. The most sensitive method of quantifying the magnitude of acetylcholine released is to determine the quantal content. Quantal content is defined as the number of neurotransmitter-containing synaptic vesicles that are released from the nerve terminal during a single action potential stimulus. This value was determined by first measuring the area under the average action potential-evoked endplate potential (EPP) and then dividing this value by the area under the average single vesicle release event (miniature endplate potential; mEPP). This value could be compared between experimental groups to provide an accurate measurement of changes in the magnitude of acetylcholine released during a single action potential. Using this approach, the quantal content among five experimental conditions was compared: control NMJs, LEMS NMJs, LEMS NMJs exposed to 50 μM 13x, LEMS NMJs exposed to 1.5 μM DAP, and LEMS NMJs exposed to 50 μM 13x+1.5 μM DAP (FIG. 10). […]; EPP amplitude=10.18±0.62 mV) as compared with control serum treated mouse NMJs (QC=107.5±3.6; EPP amplitude=34.62±1.37 mV; Tarr et al., 2013). […] In fact, this 13x-mediated enhancement was very similar to what was observed after exposure of LEMS model NMJs to 1.5 μM DAP (QC=49.0±4.4; EPP amplitude=17.94±1.381 mV). […]; EPP amplitude=34.62±1.37 mV; Tarr et al., 2013). […] In summary, while either 13x or DAP alone caused about an 80% increase in transmitter release from LEMS model NMJs, the combination of 13x plus DAP caused about a 300% increase in transmitter release.

[1] = biological target: T2, myosin light-chain kinase (MLCK(h)) (Homo sapiens, UniProt Q9H1R3); assay: Kinase inhibitory activity (EMD Millipore KinaseProfiler), MLCK; type: biochemical; conditions: 20 μM highest concentration used; read-out: MLCK EC50/IC50 affinities
T2 construct: purchased EMD Millipore KinaseProfiler service (Millipore UK Ltd.)
Protocol: as §1
(§3) Statistical Analysis. […] For the dose-response analyses on Ca^2+ current, each concentration of the four different compounds was tested in 3-6 cells. […] All EC50 and IC50 values and their respective errors were determined by performing 100 iterations of a logistic function curve fit.

Cdk1 cyclinB(h) = biological target: T3, Cdk1 cyclinB(h) (Homo sapiens, UniProt P06493); assay: Kinase inhibitory activity (EMD Millipore KinaseProfiler), cdk1; type: biochemical; conditions: 20 μM highest concentration used; read-out: Cdk1 EC50/IC50 affinities
T3 construct: purchased EMD Millipore KinaseProfiler service (Millipore UK Ltd.)
Protocol: as §1, §2

[2] = biological target: T4, L-type (Cav 1.3) channels (Rattus norvegicus, UniProt P27732); assay: L-type Ca2+ channel agonist activity, whole-cell perforated patch clamp in tsA-201 cells; type: cell-based
T4 construct: host or cells: tsA-201
T4 sequence (P27732 whole entry): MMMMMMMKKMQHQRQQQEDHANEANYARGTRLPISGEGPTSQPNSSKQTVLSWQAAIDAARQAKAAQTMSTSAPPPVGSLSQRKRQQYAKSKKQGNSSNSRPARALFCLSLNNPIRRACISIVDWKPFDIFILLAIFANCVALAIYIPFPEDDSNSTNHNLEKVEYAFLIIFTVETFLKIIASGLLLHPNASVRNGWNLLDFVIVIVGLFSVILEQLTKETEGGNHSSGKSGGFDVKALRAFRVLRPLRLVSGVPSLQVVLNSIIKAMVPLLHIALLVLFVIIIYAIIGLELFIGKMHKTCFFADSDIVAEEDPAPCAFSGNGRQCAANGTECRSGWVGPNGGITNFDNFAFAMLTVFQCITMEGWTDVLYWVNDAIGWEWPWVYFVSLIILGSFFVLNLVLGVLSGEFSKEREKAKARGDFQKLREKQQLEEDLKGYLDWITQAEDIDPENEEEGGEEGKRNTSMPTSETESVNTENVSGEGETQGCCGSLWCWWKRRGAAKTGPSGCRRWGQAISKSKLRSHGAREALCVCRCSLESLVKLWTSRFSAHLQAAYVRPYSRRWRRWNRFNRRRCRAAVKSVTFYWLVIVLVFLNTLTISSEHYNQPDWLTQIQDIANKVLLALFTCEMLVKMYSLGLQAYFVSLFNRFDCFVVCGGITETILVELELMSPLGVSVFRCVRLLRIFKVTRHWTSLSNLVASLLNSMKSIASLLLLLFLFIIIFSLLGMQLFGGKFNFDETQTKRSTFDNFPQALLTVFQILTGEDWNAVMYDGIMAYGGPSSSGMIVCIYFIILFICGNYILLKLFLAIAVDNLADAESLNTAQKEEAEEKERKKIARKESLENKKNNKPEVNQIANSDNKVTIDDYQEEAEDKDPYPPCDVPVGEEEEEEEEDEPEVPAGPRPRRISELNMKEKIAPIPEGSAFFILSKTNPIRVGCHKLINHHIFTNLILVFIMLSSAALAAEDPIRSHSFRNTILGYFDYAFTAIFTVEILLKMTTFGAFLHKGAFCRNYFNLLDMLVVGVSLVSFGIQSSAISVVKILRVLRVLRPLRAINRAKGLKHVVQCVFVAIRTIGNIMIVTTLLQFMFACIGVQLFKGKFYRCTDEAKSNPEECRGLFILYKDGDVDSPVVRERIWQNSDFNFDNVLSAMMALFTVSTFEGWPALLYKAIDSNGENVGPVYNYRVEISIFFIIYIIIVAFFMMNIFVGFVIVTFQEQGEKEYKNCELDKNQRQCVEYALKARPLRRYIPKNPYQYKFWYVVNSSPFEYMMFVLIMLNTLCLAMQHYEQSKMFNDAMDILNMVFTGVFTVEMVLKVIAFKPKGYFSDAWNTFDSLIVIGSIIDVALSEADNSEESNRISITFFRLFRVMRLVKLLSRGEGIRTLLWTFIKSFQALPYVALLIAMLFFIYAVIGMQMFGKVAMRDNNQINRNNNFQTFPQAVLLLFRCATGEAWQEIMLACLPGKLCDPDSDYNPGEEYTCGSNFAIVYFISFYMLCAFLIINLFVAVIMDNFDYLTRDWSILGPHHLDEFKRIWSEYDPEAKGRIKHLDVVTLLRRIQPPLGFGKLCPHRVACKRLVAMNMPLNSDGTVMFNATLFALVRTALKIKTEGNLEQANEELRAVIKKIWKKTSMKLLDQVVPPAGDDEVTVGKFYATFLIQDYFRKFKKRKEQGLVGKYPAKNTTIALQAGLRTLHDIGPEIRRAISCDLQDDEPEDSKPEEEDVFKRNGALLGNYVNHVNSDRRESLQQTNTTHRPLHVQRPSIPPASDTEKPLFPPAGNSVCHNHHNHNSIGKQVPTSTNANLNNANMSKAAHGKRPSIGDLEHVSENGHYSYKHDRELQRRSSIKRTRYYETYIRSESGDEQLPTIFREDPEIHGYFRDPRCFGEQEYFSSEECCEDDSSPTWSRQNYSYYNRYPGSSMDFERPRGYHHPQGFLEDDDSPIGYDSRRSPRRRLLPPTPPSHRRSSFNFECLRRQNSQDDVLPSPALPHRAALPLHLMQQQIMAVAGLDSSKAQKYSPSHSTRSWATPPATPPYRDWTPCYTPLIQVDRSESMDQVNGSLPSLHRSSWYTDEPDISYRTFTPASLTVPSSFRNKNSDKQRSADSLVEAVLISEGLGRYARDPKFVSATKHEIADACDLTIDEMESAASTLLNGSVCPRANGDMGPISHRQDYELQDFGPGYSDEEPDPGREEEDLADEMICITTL
Protocol: For subsequent evaluation of effects on N-, P/Q-, or L-type channels, tsA-201 cells were transiently transfected with Cav2.2, Cav2.1, or Cav1.3, in combination with Cavβ3 and Cavα2β1 (Addgene, Cambridge Mass.) using FuGENE 6 (Life Technologies, Grand Island, N.Y.). All cells were maintained in DMEM supplemented with 10% fetal bovine serum.
Whole-cell patch clamp recordings of calcium current. […] Briefly, the pipette solution consisted of 70 nM Cs2SO4, 60 mM CsCl, 1 mM MgCl2, 10 mM 4-(2-hydroxyethyl)-1-piperazineethanesulfonic acid (HEPES) at pH 7.4. […] Patch pipettes were fabricated from borosilicate glass and pulled to a resistance of about 1 MΩ. Before each experiment, a stock solution consisting of 3 mg amphotericin-B dissolved into 50 μL anhydrous DMSO was made. […] Capacitive currents and passive membrane responses to voltage commands were subtracted from the data. Currents were amplified by an Axopatch 200B amplifier, filtered at 5 KHz, and digitized at 10 KHz for subsequent analysis using pClamp software (Axon Instruments/Molecular Devices; Sunnyvale, Calif.). […] To measure effects on calcium channel tail currents, the tail current integral was measured before and after application of a derivative, with the integral of each trace being normalized to its peak. All experiments were carried out at room temperature (22° C.). […]

[3] = biological target: T5, N-type Ca^2+ channel (Cav2.2) (Rattus norvegicus, UniProt Q02294); assay: N-type Ca2+ channel agonist activity, whole-cell perforated patch clamp of tail currents in tsA201 cells; type: cell-based
T5 construct: expressed in transfected cells; later also transient transfection
T5 sequence (Q02294 whole entry): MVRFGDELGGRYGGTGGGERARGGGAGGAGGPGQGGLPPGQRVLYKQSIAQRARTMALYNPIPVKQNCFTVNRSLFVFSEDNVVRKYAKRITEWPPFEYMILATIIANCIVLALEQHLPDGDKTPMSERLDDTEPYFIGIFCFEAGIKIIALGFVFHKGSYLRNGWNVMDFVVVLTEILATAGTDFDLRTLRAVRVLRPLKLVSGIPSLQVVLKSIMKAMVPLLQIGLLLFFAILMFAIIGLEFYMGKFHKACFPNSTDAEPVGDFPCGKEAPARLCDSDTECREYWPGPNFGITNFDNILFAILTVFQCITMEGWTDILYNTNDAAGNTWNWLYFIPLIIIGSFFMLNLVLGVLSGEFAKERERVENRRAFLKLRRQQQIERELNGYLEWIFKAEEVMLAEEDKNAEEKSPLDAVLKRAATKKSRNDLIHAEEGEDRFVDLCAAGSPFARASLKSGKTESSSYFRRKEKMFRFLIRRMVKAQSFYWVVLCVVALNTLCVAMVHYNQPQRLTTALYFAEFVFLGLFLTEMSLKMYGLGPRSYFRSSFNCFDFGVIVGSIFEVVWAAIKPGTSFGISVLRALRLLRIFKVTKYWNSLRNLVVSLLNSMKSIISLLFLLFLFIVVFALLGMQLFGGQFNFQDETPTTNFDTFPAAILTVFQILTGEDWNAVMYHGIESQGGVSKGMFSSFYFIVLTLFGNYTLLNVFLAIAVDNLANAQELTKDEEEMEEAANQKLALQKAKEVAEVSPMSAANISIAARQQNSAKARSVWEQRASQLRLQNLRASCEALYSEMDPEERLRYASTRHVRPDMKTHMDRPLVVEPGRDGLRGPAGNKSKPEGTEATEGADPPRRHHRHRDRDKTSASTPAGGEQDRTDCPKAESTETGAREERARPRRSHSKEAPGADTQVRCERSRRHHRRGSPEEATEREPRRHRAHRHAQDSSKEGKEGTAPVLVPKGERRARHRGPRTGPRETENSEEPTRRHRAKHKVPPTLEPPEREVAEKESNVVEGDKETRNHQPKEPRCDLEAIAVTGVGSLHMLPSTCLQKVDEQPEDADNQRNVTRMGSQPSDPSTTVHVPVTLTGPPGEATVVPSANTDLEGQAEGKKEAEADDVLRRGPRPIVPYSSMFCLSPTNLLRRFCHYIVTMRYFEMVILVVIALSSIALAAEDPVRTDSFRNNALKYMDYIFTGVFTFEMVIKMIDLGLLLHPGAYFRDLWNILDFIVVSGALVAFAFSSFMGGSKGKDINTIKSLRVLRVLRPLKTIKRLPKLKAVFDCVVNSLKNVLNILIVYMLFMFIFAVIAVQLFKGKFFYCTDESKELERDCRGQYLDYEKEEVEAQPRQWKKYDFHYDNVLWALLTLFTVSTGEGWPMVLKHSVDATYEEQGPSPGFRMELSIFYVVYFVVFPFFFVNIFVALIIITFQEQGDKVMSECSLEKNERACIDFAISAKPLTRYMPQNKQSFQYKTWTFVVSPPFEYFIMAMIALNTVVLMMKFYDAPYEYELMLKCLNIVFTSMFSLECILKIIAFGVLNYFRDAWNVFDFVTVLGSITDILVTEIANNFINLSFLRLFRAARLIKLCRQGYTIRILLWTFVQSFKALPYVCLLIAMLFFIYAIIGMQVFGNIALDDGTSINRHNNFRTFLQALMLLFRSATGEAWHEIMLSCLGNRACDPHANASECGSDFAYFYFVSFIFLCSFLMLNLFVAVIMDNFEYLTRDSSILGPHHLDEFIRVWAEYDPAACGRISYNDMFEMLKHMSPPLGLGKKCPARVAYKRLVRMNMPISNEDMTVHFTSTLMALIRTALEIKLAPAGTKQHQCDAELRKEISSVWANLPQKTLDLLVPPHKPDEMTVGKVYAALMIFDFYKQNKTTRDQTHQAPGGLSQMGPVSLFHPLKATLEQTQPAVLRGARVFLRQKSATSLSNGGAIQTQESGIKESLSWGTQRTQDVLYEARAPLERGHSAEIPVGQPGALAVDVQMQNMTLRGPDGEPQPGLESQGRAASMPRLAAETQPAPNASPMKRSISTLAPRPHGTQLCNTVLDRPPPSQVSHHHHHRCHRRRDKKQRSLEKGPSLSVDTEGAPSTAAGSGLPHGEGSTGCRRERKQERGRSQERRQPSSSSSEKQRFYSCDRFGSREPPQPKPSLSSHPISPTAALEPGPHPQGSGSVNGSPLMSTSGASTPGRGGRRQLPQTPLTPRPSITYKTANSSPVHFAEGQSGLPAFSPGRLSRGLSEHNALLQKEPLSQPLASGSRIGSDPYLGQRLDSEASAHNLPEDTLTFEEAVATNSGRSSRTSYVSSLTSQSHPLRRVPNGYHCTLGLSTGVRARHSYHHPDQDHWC
Protocol: tsA201 cells expressing calcium channels. […] For subsequent evaluation of effects on N-, P/Q-, or L-type channels, tsA-201 cells were transiently transfected with Cav2.2, Cav2.1, or Cav1.3, in combination with Cavβ3 and […] (Addgene, Cambridge Mass.) using FuGENE 6 (Life Technologies, Grand Island, N.Y.). All cells were maintained in DMEM supplemented with 10% fetal bovine serum. For the stable cell line expressing N-type channels, 25 μg/mL zeocin, 5 μg/mL blasticidin, and 25 μg/mL hygromycin were added as selection agents.
Whole-cell patch clamp recordings of calcium current. […] Briefly, the pipette solution consisted of […] Cs2SO4, 60 mM CsCl, 1 mM MgCl2, 10 mM 4-(2-hydroxyethyl)-1-piperazineethanesulfonic acid (HEPES) at pH 7.4. […] Patch pipettes were fabricated from borosilicate glass and pulled to a resistance of about 1 MΩ. Before each experiment, a stock solution consisting of 3 mg amphotericin-B dissolved into 50 μL anhydrous DMSO was made. […] Capacitive currents and passive membrane responses to voltage commands were subtracted from the data. Currents were amplified by an Axopatch 200B amplifier, filtered at 5 KHz, and digitized at 10 KHz for subsequent analysis using pClamp software (Axon Instruments/Molecular Devices; Sunnyvale, Calif.). […] To measure effects on calcium channel tail currents, the tail current integral was measured before and after application of a derivative, with the integral of each trace being normalized to its peak. All experiments were carried out at room temperature (22° C.). […] All other salts and chemicals were obtained from Sigma-Aldrich chemical company (St. Louis, Mo.).
as §2

[4] = biological target: T6, mitogen-activated protein kinase (MAPK1(h)) (Homo sapiens, UniProt P27361); assay: Kinase inhibitory activity (EMD Millipore KinaseProfiler), MAPK1; type: biochemical; conditions: 20 μM highest concentration used; read-out: MAPK EC50/IC50 affinities
T6 construct: purchased EMD Millipore KinaseProfiler service (Millipore UK Ltd.)
Protocol: as §1, §3

CCCn1cnc2c(NCc3ccc(C)s3)nc(N[C@H](CC)CO)nc21 [Compound 13x, (2R)-2-[(6-{[(5-Methylthiophen-2-yl)methyl]amino}-9-propyl-9H-purin-2-yl)amino]butan-1-ol]
IC50 (cdk5 p35(h)): 3.03 ± 0.32 µM
10th EPP of 50 Hz train as % of the first EPP (short-term plasticity) (LEMS model NMJs): ~123%
increase in transmitter release from LEMS model NMJs (LEMS model NMJs): ~80%
EPP amplitude (LEMS model NMJs; LEMS model NMJs): 13.75±1.244 mV
quantal content (QC, area of EPP divided by area of mEPP) (LEMS model NMJs; LEMS model NMJs, mean±s.e.m.): 48.4±2.7
IC50 [1]: > 20 µM
IC50 (Cdk1 cyclinB(h)): 20.6 ± 0.96 µM
EC50 ([2]; Cav 1.3, no measureable agonist effect up to 100 μM, read-out: L-type EC50/IC50 affinities): > 100 µM
EC50 ([2]; b265, read-out: agonist effects on L-type calcium channels EC50): > 100 µM
higher affinity for the calcium channel than (R)-roscovitine ([3]; FIG. 4C dose response curve): 6 fold
increase in efficacy as an agonist for N- and P/Q-type Ca^2+ channels vs (R)-roscovitine ([3]; N- and P/Q-type): ~4 fold
increase in potency as an agonist for N- and P/Q-type Ca^2+ channels vs (R)-roscovitine ([3]; N- and P/Q-type): 3-4 fold
agonist effect on the Ca^2+ channel tail currents (in words) ([3]; N-type): strong agonist effect
maximal fold increase in the tail current integral relative to control ([3]; N-type channels): ~32 fold
EC50 ([3]; Table 3, calcium channel agonist, read-out: N-type EC50/IC50 affinities): 7.21 ± 0.86 µM
EC50 ([3]; read-out: 95% confidence interval for the fit (EC50) to N-type channels): 4.6 to 9.8 µM
EC50 ([3]; whole cell perforated patch clamp, deactivation (tail) currents from N-type channels, read-out: N-Type Ca^2+ Channel Activity EC50 +/− SEM): 7.2 µM and 7.21 µM
IC50 [4]: > 20 µM

From patent US9796714B2, “Calcium channel agonists” (University of Pittsburgh—Of the Commonwealth System of …, priority 2013, dated 2017)
